According to patent publication US10723741B1, “DNA polymerase IIIC inhibitors and use thereof” (Acurx Pharmaceuticals, LLC, priority 2018, dated 2020):
Converted amounts (≈) assume the structure as drawn. Counter-ions that a name gives are not always drawn. Like-named read-outs stand apart in the source and are kept apart here.

Experiments:
Type in all cases: cell-based
[1] = test system: Staphylococcus aureus ATCC 29213 (MSSA); experiment: Broth microdilution MIC, S. aureus ATCC 29213 (MSSA); settings: read-out: MIC S. aureus ATCC 29213 (MSSA)
How it was run: (§1)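 Two-fold dilutions from 64 to 0.0625 μg/ml final, 1% DMSO, were inoculated at ~5.0×10^5 cfu/ml in the strain's test medium and kept 20 h at 37 °C in ambient atmosphere. Colonies were grown on MHA, with S. pneumoniae on blood agar under 5% CO2.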

[2] = test system: Staphylococcus aureus NRS384 (MRSA); experiment: Broth microdilution MIC, S. aureus NRS384 (MRSA); parameters: MIC NRS 384 (MRSA): unit not given here; settings: for MIC: Staphylococcus aureus, read-out: MIC NRS 384 (MRSA)
How it was run: as §1

[3] = test system: Enterococcus faecium ATCC 700221 (VRE); experiment: Broth microdilution MIC, E. faecium ATCC 700221 (VRE); parameters: MIC E. faecium ATCC 700221 (VRE): unit: ug/mL; settings: for MIC: Enterococcus faecium, read-out: MIC E. faecium ATCC 700221 (VRE)
How it was run: as §1

[4] = test system: Escherichia coli ATCC 25922; experiment: Broth microdilution MIC, E. coli ATCC 25922 (MHIIB w & w/o 4 mM EDTA); settings: for MIC: Escherichia coli, read-out: MIC E. coli ATCC 25922; for MIC E. coli ATCC 25922 + 4 mM EDTA: with 4 mM EDTA
How it was run: as §1

[5] = test system: Bacillus subtilis ATCC 6633; experiment: Broth microdilution MIC, B. subtilis ATCC 6633; settings: read-out: MIC B. subtilis ATCC 6633
How it was run: as §1

[6] = test system: Enterococcus faecalis ATCC 29212; experiment: Broth microdilution MIC, E. faecalis ATCC 29212; settings: read-out: MIC E. faecalis ATCC 29212
How it was run: as §1

[7] = test system: Streptococcus pneumoniae ATCC 49619; experiment: Broth microdilution MIC, S. pneumoniae ATCC 49619; settings: read-out: MIC S. pneumoniae ATCC 49619
How it was run: as §1

[8] = broth microdilution, 37° C., 20 hours
[9] = ATCC25922, without EDTA, broth microdilution, 37° C., 20 hours
[10] = ATCC6633, broth microdilution, 37° C., 20 hours
[11] = ATCC29212, broth microdilution, 37° C., 20 hours
[12] = ATCC49619, broth microdilution, 37° C., 20 hours

Structure (SMILES) | MIC [1, 8] | MIC [2, 8] | MIC [3, 8] | MIC [4, 9] | MIC E. coli ATCC 25922 + 4 mM EDTA [4, 8] | MIC [5, 10] | MIC [6, 11] | MIC [7, 12] | MIC NRS 384 (MRSA) [2, 8] | MIC E. faecium ATCC 700221 (VRE) [3, 8] | MIC ([1]; 20 h) | MIC ([2]; 20 h) | MIC ([3]; 20 h) | MIC ([4]; ATCC25922, 20 h) | MIC ([5]; ATCC6633, 20 h) | MIC ([6]; ATCC29212, 20 h) | MIC ([7]; ATCC49619, 20 h)
O=c1[nH]c(NCc2ccc(Cl)c(Cl)c2)nc2cnn(CCOCCOCCOCCO)c12 [Compound 116, 5-((3,4-Dichlorobenzyl)amino)-1-(2-(2-(2-(2-hydroxyethoxy)ethoxy)ethoxy)ethyl)-1H-pyrazolo[4,3-d]pyrimidin-7(6H)-one] | 64 µg/mL (≈ 132 µM) | 32 µg/mL (≈ 65.8 µM) | 8 µg/mL (≈ 16.4 µM) | > 64 µg/mL | >64 µg/mL | 8 µg/mL (≈ 16.4 µM) | 16 µg/mL (≈ 32.9 µM) | 8 µg/mL (≈ 16.4 µM) | – | – | – | – | – | – | – | – | –
CC(C)OC(=O)CCCCn1ncc2nc(NCc3ccc(Cl)c(Cl)c3)[nH]c(=O)c21 [Compound 204, isopropyl 5-(5-((3,4-dichlorobenzyl)amino)-7-oxo-6,7-dihydro-1H-pyrazolo[4,3-d]pyrimidin-1-yl)pentanoate] | 4 µg/mL (≈ 8.84 µM) | 2 µg/mL (≈ 4.42 µM) | 2 µg/mL (≈ 4.42 µM) | > 64 µg/mL | >64 µg/mL | 1 µg/mL (≈ 2.21 µM) | > 64 µg/mL | 16 µg/mL (≈ 35.4 µM) | – | – | – | – | – | – | – | – | –
CN1CCC(O)(Cn2ncc3nc(NCc4ccc(Cl)c(Cl)c4)[nH]c(=O)c32)CC1.Cl [Compound 241, 5-((3,4-dichlorobenzyl)amino)-1-((4-hydroxy-1-methylpiperidin-4-yl)methyl)-1H-pyrazolo[4,3-d]pyrimidin-7(6H)-one hydrochloride] | 32 µg/mL | 64 µg/mL | 64 µg/mL | > 64 µg/mL | >64 µg/mL | 4 µg/mL | 32 µg/mL | 8 µg/mL | – | – | – | – | – | – | – | – | –
O=c1[nH]c(NCc2ccc(Cl)c(Cl)c2)nc2cnn(CCCO)c12 [Compound 123, 5-((3,4-Dichlorobenzyl)amino)-1-(3-hydroxypropyl)-1H-pyrazolo[4,3-d]pyrimidin-7(6H)-one] | 2 µg/mL (≈ 5.43 µM) | 2 µg/mL (≈ 5.43 µM) | 1 µg/mL (≈ 2.72 µM) | > 64 µg/mL | >64 µg/mL | 0.5 µg/mL (≈ 1.36 µM) | 4 µg/mL (≈ 10.9 µM) | 2 µg/mL (≈ 5.43 µM) | – | – | – | – | – | – | – | – | –
Cc1noc(C)c1C(=O)NCCn1ncc2nc(NCc3ccc(Cl)c(Cl)c3)[nH]c(=O)c21 [Compound 79, N-(2-(5-((3,4-dichlorobenzyl)amino)-7-oxo-6,7-dihydro-1H-pyrazolo[4,3-d]pyrimidin-1-yl)ethyl)-3,5-dimethylisoxazole-4-carboxamide] | 16 µg/mL (≈ 33.6 µM) | 32 µg/mL (≈ 67.2 µM) | 8 µg/mL (≈ 16.8 µM) | > 64 µg/mL | >64 µg/mL | 16 µg/mL (≈ 33.6 µM) | 16 µg/mL (≈ 33.6 µM) | 8 µg/mL (≈ 16.8 µM) | – | – | – | – | – | – | – | – | –
CC(=O)N1CCC(Cn2ncc3nc(NCc4ccc(Cl)c(Cl)c4)[nH]c(=O)c32)C1 (stereo not shown) [Compound 281, 1-((1-Acetylpyrrolidin-3-yl)methyl)-5-((3,4-dichlorobenzyl)amino)-1H-pyrazolo[4,3-d]pyrimidin-7(6H)-one] | 8 µg/mL (≈ 18.4 µM) | – | 2 µg/mL (≈ 4.59 µM) | > 64 µg/mL | >64 µg/mL | 2 µg/mL (≈ 4.59 µM) | 4 µg/mL (≈ 9.19 µM) | 2 µg/mL (≈ 4.59 µM) | 4/8 | – | – | – | – | – | – | – | –
O=c1[nH]c(NCc2ccc(Cl)c(Cl)c2)nc2cnn(CCOC/C=N/O)c12 [Compound 191, (E)-2-(2-(5-((3,4-dichlorobenzyl)amino)-7-oxo-6,7-dihydro-1H-pyrazolo[4,3-d]pyrimidin-1-yl)ethoxy)acetaldehyde oxime] | 4 µg/mL (≈ 9.73 µM) | 8 µg/mL (≈ 19.5 µM) | 2 µg/mL (≈ 4.86 µM) | > 64 µg/mL | >64 µg/mL | 2 µg/mL (≈ 4.86 µM) | 8 µg/mL (≈ 19.5 µM) | 4 µg/mL (≈ 9.73 µM) | – | – | – | – | – | – | – | – | –
O=c1[nH]c(NCc2ccc(Cl)c(Cl)c2)nc2cnn(CC3CCO3)c12 (stereo not shown) [Compound 122, 5-((3,4-Dichlorobenzyl)amino)-1-(oxetan-2-ylmethyl)-1H-pyrazolo[4,3-d]pyrimidin-7(6H)-one] | 2 µg/mL (≈ 5.26 µM) | 2 µg/mL (≈ 5.26 µM) | 2 µg/mL (≈ 5.26 µM) | > 64 µg/mL | >64 µg/mL | 1 µg/mL (≈ 2.63 µM) | 4 µg/mL (≈ 10.5 µM) | 4 µg/mL (≈ 10.5 µM) | – | – | – | – | – | – | – | – | –
CC(C)(C)OC(=O)N1CCC(n2ncc3nc(NCc4ccc(Cl)c(Cl)c4)[nH]c(=O)c32)C1 (stereo not shown) [Compound 98, tert-Butyl 3-(5-((3,4-dichlorobenzyl)amino)-7-oxo-6,7-dihydro-1H-pyrazolo[4,3-d]pyrimidin-1-yl)pyrrolidine-1-carboxylate] | 8 µg/mL (≈ 16.7 µM) | 8 µg/mL (≈ 16.7 µM) | 4 µg/mL (≈ 8.34 µM) | > 64 µg/mL | >64 µg/mL | 2 µg/mL (≈ 4.17 µM) | > 64 µg/mL | 16 µg/mL (≈ 33.4 µM) | – | – | – | – | – | – | – | – | –
Cn1ncc2nc(NCc3cccnn3)[nH]c(=O)c21 [Compound 23, 1-Methyl-5-((pyridazin-3-ylmethyl)amino)-1H-pyrazolo[4,3-d]pyrimidin-7(6H)-one] | > 64 µg/mL | > 64 µg/mL | > 64 µg/mL | > 64 µg/mL | >64 µg/mL | > 64 µg/mL | > 64 µg/mL | > 64 µg/mL | – | – | – | – | – | – | – | – | –
Cl.Cl.O=c1[nH]c(NCc2ccc(Cl)c(Cl)c2)nc2cnn(C3CCN(c4ccncc4)C3)c12 (stereo not shown) [Compound 180, 5-((3,4-Dichlorobenzyl)amino)-1-(1-(pyridin-4-yl)pyrrolidin-3-yl)-1H-pyrazolo[4,3-d]pyrimidin-7(6H)-one dihydrochloride] | 8 µg/mL | – | – | 64 µg/mL | 16 µg/mL | 2 µg/mL | 8 µg/mL | 4 µg/mL | 4/4 | 4/4 | – | – | – | – | – | – | –
O=C(O)CCCn1ncc2nc(NCc3ccc(Cl)c(Cl)c3)[nH]c(=O)c21 [Compound 145, 4-(5-((3,4-Dichlorobenzyl)amino)-7-oxo-6,7-dihydro-1H-pyrazolo[4,3-d]pyrimidin-1-yl)butanoic acid] | 64 µg/mL (≈ 162 µM) | 64 µg/mL (≈ 162 µM) | 16 µg/mL (≈ 40.4 µM) | > 64 µg/mL | >64 µg/mL | 32 µg/mL (≈ 80.8 µM) | 64 µg/mL (≈ 162 µM) | 16 µg/mL (≈ 40.4 µM) | – | – | – | – | – | – | – | – | –
COC(=O)C(C)n1ncc2nc(NCc3ccc(Cl)c(Cl)c3)[nH]c(=O)c21 (stereo not shown) [Compound 227, Methyl 2-(5-((3,4-dichlorobenzyl)amino)-7-oxo-6,7-dihydro-1H-pyrazolo[4,3-d]pyrimidin-1-yl)propanoate] | 8 µg/mL (≈ 20.2 µM) | 8 µg/mL (≈ 20.2 µM) | 4 µg/mL (≈ 10.1 µM) | > 64 µg/mL | 32 µg/mL | 4 µg/mL (≈ 10.1 µM) | 16 µg/mL (≈ 40.4 µM) | 16 µg/mL (≈ 40.4 µM) | – | – | – | – | – | – | – | – | –
COC(=O)COCCOCCn1ncc2nc(NCc3ccc(Cl)c(Cl)c3)[nH]c(=O)c21 [Compound 186, methyl 2-(2-(2-(5-((3,4-dichlorobenzyl)amino)-7-oxo-6,7-dihydro-1H-pyrazolo[4,3-d]pyrimidin-1-yl)ethoxy)ethoxy)acetate] | 16 µg/mL (≈ 34 µM) | 8 µg/mL (≈ 17 µM) | 4 µg/mL (≈ 8.5 µM) | > 64 µg/mL | >64 µg/mL | 4 µg/mL (≈ 8.5 µM) | 16 µg/mL (≈ 34 µM) | > 64 µg/mL | – | – | – | – | – | – | – | – | –
CS(=O)(=O)NC(=O)Cn1ncc2nc(NCc3ccc(Cl)c(Cl)c3)[nH]c(=O)c21 [Compound 165, 2-(5-((3,4-dichlorobenzyl)amino)-7-oxo-6,7-dihydro-1H-pyrazolo[4,3-d]pyrimidin-1-yl)-N-(methylsulfonyl)acetamide] | > 64 µg/mL | > 64 µg/mL | > 64 µg/mL | > 64 µg/mL | >64 µg/mL | > 64 µg/mL | > 64 µg/mL | > 64 µg/mL | – | – | – | – | – | – | – | – | –
O=c1[nH]c(NCc2ccc(Cl)c(Cl)c2)nc2cn(C3CCNC3)nc12 (stereo not shown) [Compound 215, 5-((3,4-Dichlorobenzyl)amino)-2-(pyrrolidin-3-yl)-2H-pyrazolo[4,3-d]pyrimidin-7(6H)-one TFA salt] | – | – | – | – | 64 µg/mL | – | – | – | – | – | > 64 µg/mL | > 64 µg/mL | > 64 µg/mL | > 64 µg/mL | 64 µg/mL | > 64 µg/mL | 16 µg/mL
C[C@@H](O)Cn1ncc2nc(NCc3ccc(Cl)c(Cl)c3)[nH]c(=O)c21 [Compound 239, (R)-5-((3,4-dichlorobenzyl)amino)-1-(2-hydroxypropyl)-1H-pyrazolo[4,3-d]pyrimidin-7(6H)-one] | 4 µg/mL (≈ 10.9 µM) | 4 µg/mL (≈ 10.9 µM) | 2 µg/mL (≈ 5.43 µM) | > 64 µg/mL | >64 µg/mL | 2 µg/mL (≈ 5.43 µM) | 8 µg/mL (≈ 21.7 µM) | 8 µg/mL (≈ 21.7 µM) | – | – | – | – | – | – | – | – | –
